# Reference: PubChem BioAssay AID2060622 (Molecular Pharmacology Branch, DTP, NCI, 2025)
# pIC50: −log10 of the molar value. Several values for one entry are separate records, joined by “and”; a condition that tells them apart may be missing. Equal values may be shown once.
# System: 242566-281-R-J2-PDC complex spheroid viability
# Test: Anticancer human tumor 242566-281-R-J2-PDC patient-derived pancreatic carcinoma cell line growth inhibition [CLK]
# Settings: for viability, T/C: stronger effect = lower value
# Outline: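 Patient-derived tumor cells grown as complex spheroids with HUVEC endothelial cells and mesenchymal stem cells, treated with drug combinations. Concentrations descend in half-log steps from near clinical Cmax, or from 10 microM if Cmax unknown.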
# [1] = curve of first compound, second compound 0.0316 µM
# [2] = curve of first compound, second compound 0.1 µM
# [3] = curve of first compound, second compound 0.316 µM
# [4] = curve of first compound, second compound 1 µM
# [5] = curve of first compound, second compound 3.16 µM
# [6] = curve of first compound, second compound 10 µM
# [7] = second compound 0.0316 µM, first compound 0.0316 µM
# [8] = second compound 0.0316 µM, first compound 0.1 µM
# [9] = second compound 0.0316 µM, first compound 0.316 µM
# [10] = second compound 0.0316 µM, first compound 1 µM
# [11] = second compound 0.0316 µM, first compound 3.16 µM
# [12] = second compound 0.0316 µM, first compound 10 µM
# [13] = second compound 0.1 µM, first compound 0.0316 µM
# [14] = second compound 0.1 µM, first compound 0.1 µM
# [15] = second compound 0.1 µM, first compound 0.316 µM
# [16] = second compound 0.1 µM, first compound 1 µM
# [17] = second compound 0.1 µM, first compound 3.16 µM
# [18] = second compound 0.1 µM, first compound 10 µM
# [19] = second compound 0.316 µM, first compound 0.0316 µM
# [20] = second compound 0.316 µM, first compound 0.1 µM
# [21] = second compound 0.316 µM, first compound 0.316 µM
# [22] = second compound 0.316 µM, first compound 1 µM
# [23] = second compound 0.316 µM, first compound 3.16 µM
# [24] = second compound 0.316 µM, first compound 10 µM
# [25] = second compound 1 µM, first compound 0.0316 µM
# [26] = second compound 1 µM, first compound 0.1 µM
# [27] = second compound 1 µM, first compound 0.316 µM
# [28] = second compound 1 µM, first compound 1 µM
# [29] = second compound 1 µM, first compound 3.16 µM
# [30] = second compound 1 µM, first compound 10 µM
# [31] = second compound 3.16 µM, first compound 0.0316 µM
# [32] = second compound 3.16 µM, first compound 0.1 µM
# [33] = second compound 3.16 µM, first compound 0.316 µM
# [34] = second compound 3.16 µM, first compound 1 µM
# [35] = second compound 3.16 µM, first compound 3.16 µM
# [36] = second compound 3.16 µM, first compound 10 µM
# [37] = second compound 10 µM, first compound 0.0316 µM
# [38] = second compound 10 µM, first compound 0.1 µM
# [39] = second compound 10 µM, first compound 0.316 µM
# [40] = second compound 10 µM, first compound 1 µM
# [41] = second compound 10 µM, first compound 3.16 µM
# [42] = second compound 10 µM, first compound 10 µM
# 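Further: spheroids exposed to compounds for 7 days before readout.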
# 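Wherever viability, T/C is given: 100% = DMSO vehicle control wells.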
smiles,measurement,setting,value
CC1COCCN1c1cc(C2(S(C)(=N)=O)CC2)nc(-c2ccnc3[nH]ccc23)n1 (stereo unspecified) + CNC(=O)c1ccc(Nc2nc(OC3CCCC3)c3c(-c4ccc5nc(C)oc5c4)c[nH]c3n2)c(OC)c1,pIC50,[1],< 5.00
same,pIC50,[2],< 5.00
same,pIC50,[3],5.15
same,pIC50,[4],6.12
same,pIC50,[5],6.72
same,pIC50,[6],7.21
same,"viability, T/C",[7],89%
same,"viability, T/C",[8],105%
same,"viability, T/C",[9],117%
same,"viability, T/C",[10],118%
same,"viability, T/C",[11],92.2%
same,"viability, T/C",[12],61%
same,"viability, T/C",[13],84.7%
same,"viability, T/C",[14],90.1%
same,"viability, T/C",[15],91.6%
same,"viability, T/C",[16],104%
same,"viability, T/C",[17],93%
same,"viability, T/C",[18],55.6%
same,"viability, T/C",[19],76.8%
same,"viability, T/C",[20],77.8%
same,"viability, T/C",[21],80.3%
same,"viability, T/C",[22],70.8%
same,"viability, T/C",[23],71%
same,"viability, T/C",[24],41.7%
same,"viability, T/C",[25],73.9%
same,"viability, T/C",[26],69.7%
same,"viability, T/C",[27],55.1%
same,"viability, T/C",[28],49.4%
same,"viability, T/C",[29],34.3%
same,"viability, T/C",[30],17.7%
same,"viability, T/C",[31],55.2%
same,"viability, T/C",[32],55.1%
same,"viability, T/C",[33],46.9%
same,"viability, T/C",[34],36.2%
same,"viability, T/C",[35],24.6%
same,"viability, T/C",[36],13.4%
same,"viability, T/C",[37],52.5%
same,"viability, T/C",[38],47.1%
same,"viability, T/C",[39],43.8%
same,"viability, T/C",[40],33.2%
same,"viability, T/C",[41],22.1%
same,"viability, T/C",[42],13.5%
C=CC(=O)N1CCN(c2nc(=O)n(-c3c(C)ccnc3C(C)C)c3nc(-c4c(O)cccc4F)c(F)cc23)C(C)C1 (stereo unspecified),"viability, T/C",compound 0.0316 µM,95.5% and 104%
same,"viability, T/C",compound 0.1 µM,80.4% and 92.4%
same,"viability, T/C",compound 0.316 µM,78.5% and 103%
same,"viability, T/C",compound 1 µM,104% and 90.6%
same,"viability, T/C",compound 3.16 µM,102% and 88.7%
same,"viability, T/C",compound 10 µM,70.8% and 77.6%
same,pIC50,curve of compound,< 5.00
CC(Nc1ccc2c(c1)OCCn1cc(N3C(=O)OCC3C(F)F)nc1-2)C(N)=O (stereo unspecified) + CN1CCN(c2cc(C(=O)Nc3cc4cc(-c5cnn(C)c5)ccc4cn3)ccn2)CC1,pIC50,[1],6.08
same,pIC50,[2],6.37
same,pIC50,[3],> 7.50
same,pIC50,[4],> 7.50
same,pIC50,[5],> 7.50
same,pIC50,[6],> 7.50
same,"viability, T/C",[7],98.6%
same,"viability, T/C",[8],85.9%
same,"viability, T/C",[9],66.1%
same,"viability, T/C",[10],47.1%
same,"viability, T/C",[11],30.2%
same,"viability, T/C",[12],19.6%
same,"viability, T/C",[13],89.7%
same,"viability, T/C",[14],71.6%
same,"viability, T/C",[15],54.1%
same,"viability, T/C",[16],37.7%
same,"viability, T/C",[17],27.5%
same,"viability, T/C",[18],15.9%
same,"viability, T/C",[19],30.8%
same,"viability, T/C",[20],28.4%
same,"viability, T/C",[21],24%
same,"viability, T/C",[22],16.5%
same,"viability, T/C",[23],11.1%
same,"viability, T/C",[24],6.49%
same,"viability, T/C",[25],3.7%
same,"viability, T/C",[26],3.4%
same,"viability, T/C",[27],2.95%
same,"viability, T/C",[28],2.95%
same,"viability, T/C",[29],2.35%
same,"viability, T/C",[30],1.83%
same,"viability, T/C",[31],6.09%
same,"viability, T/C",[32],5.94%
same,"viability, T/C",[33],5.25%
same,"viability, T/C",[34],4.35%
same,"viability, T/C",[35],3.81%
same,"viability, T/C",[36],3.86%
same,"viability, T/C",[37],2.15%
same,"viability, T/C",[38],2.04%
same,"viability, T/C",[39],1.6%
same,"viability, T/C",[40],1.88%
same,"viability, T/C",[41],1.85%
same,"viability, T/C",[42],1.04%
